Measurements taken from patent US10392404B2, “Compounds and compositions as kinase inhibitors” (NOVARTIS AG, priority 2014, dated 2019).

What was measured:
b-Raf (V600E) = biological target: T1, b-Raf (V600E) (Homo sapiens, UniProt P15056, V600E); test: In vitro Raf activity determination (Alpha Screen, biotinylated kinase-dead MEK1 substrate), B-Raf; format: biochemical; conditions: b-Raf (V600E) approximately 4 pM; ATP 10 μM; pre-incubation 60 minutes; reaction 3 hours at room temperature
T1 construct: made in house
T1 sequence (P15056 whole entry V600E): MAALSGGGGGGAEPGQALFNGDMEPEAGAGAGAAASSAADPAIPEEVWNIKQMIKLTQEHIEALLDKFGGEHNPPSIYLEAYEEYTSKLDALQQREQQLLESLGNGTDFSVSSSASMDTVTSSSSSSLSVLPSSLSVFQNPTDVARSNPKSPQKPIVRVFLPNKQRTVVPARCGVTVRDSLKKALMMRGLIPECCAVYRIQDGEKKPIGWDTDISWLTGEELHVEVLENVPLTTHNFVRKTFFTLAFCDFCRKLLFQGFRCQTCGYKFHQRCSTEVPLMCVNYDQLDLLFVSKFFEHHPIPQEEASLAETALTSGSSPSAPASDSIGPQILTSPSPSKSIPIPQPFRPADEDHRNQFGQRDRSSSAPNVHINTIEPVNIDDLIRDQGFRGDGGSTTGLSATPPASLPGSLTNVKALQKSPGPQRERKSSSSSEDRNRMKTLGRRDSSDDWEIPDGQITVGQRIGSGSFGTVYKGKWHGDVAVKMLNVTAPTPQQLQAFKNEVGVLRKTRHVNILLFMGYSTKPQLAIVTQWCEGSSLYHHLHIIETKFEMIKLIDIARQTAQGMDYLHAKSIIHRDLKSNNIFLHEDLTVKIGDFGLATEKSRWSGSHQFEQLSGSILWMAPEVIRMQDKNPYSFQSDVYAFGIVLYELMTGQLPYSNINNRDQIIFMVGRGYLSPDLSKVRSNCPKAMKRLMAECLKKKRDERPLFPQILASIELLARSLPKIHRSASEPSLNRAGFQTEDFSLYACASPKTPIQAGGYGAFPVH
Description: (§1) Full length MEK1 with an inactivating K97R ATP binding site mutation is utilized as a RAF substrate. The MEK1 cDNA was subcloned with an N-terminal (his)6 tag into a vector for E. Coli expression. The MEK1 substrate was purified from E. Coli lysate by nickel affinity chromatography followed by anion exchange. The final MEK1 preparation was biotinylated (Pierce EZ-Link Sulfo-NHS-LC-Biotin) and concentrated.
(§2) Assay Materials: Assay buffer is 50 mM Tris, pH 7.5, 15 mM MgCl2, 0.01% Bovine Serum Albumin (BSA) and 1 mM dithiothreitol (DTT); Stop buffer is 60 mM ethylenediaminetetraacetic acid (EDTA) and 0.01% Tween® 20; b-Raf (V600E), active; biotinylated Mek, kinase dead; Alpha Screen detection kit (available from PerkinElmer™, #6760617R); Anti phospho-MEK1/2 (available from Cell Signaling Technology, Inc. #9121); 384 well low volume assay plates (White Greiner® plates).
(§3) Assay conditions: b-Raf (V600E) approximately 4 pM; c-Raf approximately 4 nM; biotinylated Mek, kinase dead approximately 10 nM; ATP 10 μM for BRAF (V600E) and 1 μM for CRAF; Pre-incubation time with compounds 60 minutes at room temperature; Reaction time 1 or 3 hours at room temperature.
(§4) Assay protocol: Raf and biotinylated Mek (kinase dead) were combined at 2× final concentrations in assay buffer (50 mM Tris, pH 7.5, 15 mM MgCl2, 0.01% BSA and 1 mM DTT) and dispensed […] per well in assay plates (Greiner white 384 well assay plates #781207) containing […] of 40× of a Raf kinase inhibitor test compound diluted in 100% DMSO. The plate was incubated for 60 minutes at room temperature. The Raf kinase activity reaction was started by the addition of […] per well of 2×ATP diluted in assay buffer. After 3 hours (b-Raf(V600E)) or 1 hour (c-Raf). The reactions were stopped and the phosphorylated product was measured using a rabbit anti-p-MEK (Cell Signaling, #9121) antibody and the Alpha Screen IgG (ProteinA) detection Kit (PerkinElmer #6760617R), by the addition of […] to the well of a mixture of the antibody (1:2000 dilution) and detection beads (1:2000 dilution of both beads) in Stop/bead buffer (25 mM EDTA, 50 mM Tris, pH 7.5, 0.01% Tween20). The additions were carried out under dark conditions to protect the detection beads from light. A lid was placed on top of the plate and incubated for 1 hour at room temperature, after which the luminescence was read on a PerkinElmer Envision instrument. The concentration of each compound for 50% inhibition (IC50) was calculated by non-linear regression using XL Fit data analysis software.

C-RAF = biological target: T2, C-RAF (Homo sapiens, UniProt P04049, Y340E/Y341E); test: In vitro Raf activity determination (Alpha Screen, biotinylated kinase-dead MEK1 substrate), C-Raf; format: biochemical; conditions: c-Raf approximately 4 nM; ATP 1 μM; pre-incubation 60 minutes; reaction 1 hour at room temperature
T2 construct: His tag (implied by nickel chromatography) (cleaved yes); StrepII tag (cleaved yes); made in house; host or cells: Sf9 insect cells (baculovirus), CRAF and h14-3-3 zeta co-expressed; MEK1 substrate from E. coli
T2 sequence (P04049 whole entry Y340E/Y341E): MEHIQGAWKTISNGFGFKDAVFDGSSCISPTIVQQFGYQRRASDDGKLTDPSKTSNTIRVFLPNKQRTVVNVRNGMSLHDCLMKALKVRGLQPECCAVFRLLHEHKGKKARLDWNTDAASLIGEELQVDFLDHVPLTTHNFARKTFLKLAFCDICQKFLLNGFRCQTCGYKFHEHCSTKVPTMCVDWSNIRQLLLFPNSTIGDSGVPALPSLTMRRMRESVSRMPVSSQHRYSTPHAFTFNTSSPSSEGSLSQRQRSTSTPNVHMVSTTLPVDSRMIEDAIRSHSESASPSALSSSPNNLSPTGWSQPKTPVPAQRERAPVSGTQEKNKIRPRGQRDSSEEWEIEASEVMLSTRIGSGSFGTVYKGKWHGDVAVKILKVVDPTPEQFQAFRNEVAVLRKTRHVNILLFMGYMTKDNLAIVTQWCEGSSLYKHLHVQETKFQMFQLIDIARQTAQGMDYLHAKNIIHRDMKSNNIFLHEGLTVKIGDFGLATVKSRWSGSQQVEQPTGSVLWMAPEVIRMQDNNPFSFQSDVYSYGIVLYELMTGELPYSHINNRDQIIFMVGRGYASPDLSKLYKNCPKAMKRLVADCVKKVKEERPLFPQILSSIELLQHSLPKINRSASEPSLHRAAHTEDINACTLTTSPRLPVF
T2 sequence (P63104 whole entry partner): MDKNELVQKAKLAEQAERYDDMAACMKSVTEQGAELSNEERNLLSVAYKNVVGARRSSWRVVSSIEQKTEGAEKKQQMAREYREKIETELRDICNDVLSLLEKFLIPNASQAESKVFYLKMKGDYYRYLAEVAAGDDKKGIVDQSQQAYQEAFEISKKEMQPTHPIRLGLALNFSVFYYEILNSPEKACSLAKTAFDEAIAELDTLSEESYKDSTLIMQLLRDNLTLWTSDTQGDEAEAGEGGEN
Excerpt: CRAF cDNA was subcloned as full length protein, with Y340E and Y341E activating mutations, into a baculovirus expression vector for Sf9 insect cell expression. h14-3-3 zeta cDNA was subcloned into a baculovirus expression vector for SF9 insect cell expression. Sf9 cells co-expressing both proteins were lysed and subjected to immobilized nickel chromatography and eluted with Imidazole. A second column (StrepII binding column) was used and eluted with desthiobiotin. Protein Tags were removed using Prescission enzyme and the protein was further purified using a flowthrough step to remove tags.
C-Raf TR refers to a truncated C-Raf protein, a Δ1-324 deletion mutant. C-Raf FL refers to the full-length C-Raf protein.
as §1, §2, §3, §4

## Cc1ncc(NC(=O)c2ccnc(C(C)(C)C#N)c2)cc1-c1cnc(N2CCS(=O)(=O)CC2)c(C#N)c1 [Example 55, N-(5′-cyano-6′-(1,1-dioxidothiomorpho-lino)-2-methyl-[3,3′-bipyridin]-5-yl)-2-(2-cyanopropan-2-yl)isonicotinamide]
b-Raf (V600E)
  IC50: 11.6 nM
C-RAF
  IC50: 2.36 nM

## Cc1ccc(NC(=O)c2ccnc(C(C)(C)C#N)c2)cc1-c1cnc(NC2CCOCC2)c(C#N)c1 [Example 60, N-(3-(5-cyano-6-((tetrahydro-2H-pyran-4-yl)amino)pyridin-3-yl)-4-methylphenyl)-2-(2-cyanopropan-2-yl)isonicotinamide]
b-Raf (V600E)
  IC50: 1.08 nM
C-RAF
  IC50: 0.367 nM

## Cc1ccc(NC(=O)c2ccnc(C(F)(F)F)c2)cc1-c1cnc(NC2CCOCC2)c(C#N)c1 [Example 61, N-(3-(5-cyano-6-((tetrahydro-2H-pyran-4-yl)amino)pyridin-3-yl)-4-methylphenyl)-2-(trifluoromethyl) isonicotinamide]
b-Raf (V600E)
  IC50: 0.509 nM
C-RAF
  IC50: 0.194 nM

## Cc1ccc(NC(=O)c2ccnc(C(F)(F)F)c2)cc1-c1cnc(N2CCOCC2)c(C#N)c1 [Example 62, N-(3-(5-cyano-6-morpholinopyridin-3-yl)-4-methylphenyl)-2-(trifluoromethyl) isonicotinamide]
b-Raf (V600E)
  IC50: 0.477 nM
C-RAF
  IC50: 0.158 nM

## Cc1ccc(NC(=O)c2ccnc(C(F)(F)F)c2)cc1-c1cnc(N2CC(O)C2)c(C#N)c1 [Example 63, N-(3-(5-cyano-6-(3-hydroxyazetidin-1-yl)pyridin-3-yl)-4-methylphenyl)-2-(trifluoromethyl) isonicotinamide]
b-Raf (V600E)
  IC50: 0.488 nM
C-RAF
  IC50: 0.121 nM

## Cc1ncc(NC(=O)c2ccnc(C(C)(C)C#N)c2)cc1-c1cnc(N2CCOCC2)c(C#N)c1 [Example 64, N-(5′-cyano-2-methyl-6′-morpholino-[3,3′-bipyridin]-5-yl)-2-(2-cyanopropan-2-yl)isonicotinamide]
b-Raf (V600E)
  IC50: 3.7 nM
C-RAF
  IC50: 0.832 nM

## Cc1ncc(NC(=O)c2ccnc(C(C)(C)C#N)c2)cc1-c1cnc(N2CC(O)C2)c(C#N)c1 [Example 65, N-(5′-cyano-6′-(3-hydroxyazetidin-1-yl)-2-methyl-[3,3′-bipyridin]-5-yl)-2-(2-cyanopropan-2-yl)isonicotinamide]
b-Raf (V600E)
  IC50: 14.5 nM
C-RAF
  IC50: 2.7 nM

## Cc1ncc(NC(=O)c2cccc(C(F)(F)F)c2)cc1-c1cnc(N2CCOCC2)c(C#N)c1 [Example 66, N-(5′-cyano-2-methyl-6′-morpholino-[3,3′-bipyridin]-5-yl)-3-(trifluoromethyl) benzamide]
b-Raf (V600E)
  IC50: 0.852 nM
C-RAF
  IC50: 0.203 nM

## Cc1ncc(NC(=O)c2cccc(C(F)(F)F)c2)cc1-c1cnc(N2CC(O)C2)c(C#N)c1 [Example 67, N-(5′-cyano-6′-(3-hydroxyazetidin-1-yl)-2-methyl-[3,3′-bipyridin]-5-yl)-3-(trifluoromethyl) benzamide]
b-Raf (V600E)
  IC50: 1.24 nM
C-RAF
  IC50: 0.225 nM

## Cc1ncc(NC(=O)c2ccnc(C(F)(F)F)c2)cc1-c1cnc(N2CCOCC2)c(C#N)c1 [Example 68, N-(5′-cyano-2-methyl-6′-morpholino-[3,3′-bipyridin]-5-yl)-2-(trifluoromethyl) isonicotinamide]
b-Raf (V600E)
  IC50: 0.902 nM
C-RAF
  IC50: 0.223 nM

## Cc1ncc(NC(=O)c2ccnc(C(F)(F)F)c2)cc1-c1cnc(N2CC(O)C2)c(C#N)c1 [Example 69, N-(5′-cyano-6′-(3-hydroxyazetidin-1-yl)-2-methyl-[3,3′-bipyridin]-5-yl)-2-(trifluoromethyl) isonicotinamide]
b-Raf (V600E)
  IC50: 2.56 nM
C-RAF
  IC50: 0.46 nM

## Cc1ncc(NC(=O)c2ccnc(C(F)(F)F)c2)cc1-c1cnc(N2CCNCC2)c(C#N)c1 [Example 70, N-(5′-cyano-2-methyl-6′-(piperazin-1-yl)-[3,3′-bipyridin]-5-yl)-2-(trifluoromethyl) isonicotinamide]
b-Raf (V600E)
  IC50: 0.994 nM
C-RAF
  IC50: 0.418 nM

## Cc1ncc(NC(=O)c2ccnc(C(C)(C)C#N)c2)cc1-c1cnc(N2CCNCC2)c(C#N)c1 [Example 71, N-(5′-cyano-2-methyl-6′-(piperazin-1-yl)-[3,3′-bipyridin]-5-yl)-2-(2-cyanopropan-2-yl)isonicotinamide]
b-Raf (V600E)
  IC50: 4.03 nM
C-RAF
  IC50: 1.97 nM

## Cc1ncc(NC(=O)c2ccnc(C(C)(C)C#N)c2)cc1-c1cnc(NC2CCOCC2)c(C#N)c1 [Example 72, N-(5′-cyano-2-methyl-6′-((tetrahydro-2H-pyran-4-yl)amino)-[3,3′-bipyridin]-5-yl)-2-(2-cyanopropan-2-yl)isonicotinamide]
b-Raf (V600E)
  IC50: 6.47 nM
C-RAF
  IC50: 1.53 nM

## Cc1ncc(NC(=O)c2ccnc(C(C)(C)C#N)c2)cc1-c1cnc(N2CCCC2)c(C#N)c1 [Example 73, N-(5′-cyano-2-methyl-6′-(pyrrolidin-1-yl)-[3,3′-bipyridin]-5-yl)-2-(2-cyanopropan-2-yl)isonicotinamide]
b-Raf (V600E)
  IC50: 8.66 nM
C-RAF
  IC50: 2.09 nM

## Cc1ncc(NC(=O)c2ccnc(C(C)(C)C#N)c2)cc1-c1cnc(N2CCO[C@@H](C)C2)c(C#N)c1 [Example 74, (S)-N-(5′-cyano-2-methyl-6′-(2-methylmorpholino)-[3,3′-bipyridin]-5-yl)-2-(2-cyanopropan-2-yl)isonicotinamide]
b-Raf (V600E)
  IC50: 5.54 nM
C-RAF
  IC50: 1.64 nM

## Cc1ncc(NC(=O)c2ccnc(C(C)(C)C#N)c2)cc1-c1cnc(N2CCO[C@H](C)C2)c(C#N)c1 [Example 75, (R)-N-(5′-cyano-2-methyl-6′-(2-methylmorpholino)-[3,3′-bipyridin]-5-yl)-2-(2-cyanopropan-2-yl)isonicotinamide]
b-Raf (V600E)
  IC50: 3.79 nM
C-RAF
  IC50: 1.2 nM

## Cc1ncc(NC(=O)c2ccnc(C(C)(C)C#N)c2)cc1-c1cnc(N2CCC2)c(C#N)c1 [Example 76, N-(6′-(azetidin-1-yl)-5′-cyano-2-methyl-[3,3′-bipyridin]-5-yl)-2-(2-cyanopropan-2-yl)isonicotinamide]
b-Raf (V600E)
  IC50: 9.01 nM
C-RAF
  IC50: 1.53 nM

## Cc1ncc(NC(=O)c2ccnc(C(C)(C)C#N)c2)cc1-c1cnc(NC2CCOC2)c(C#N)c1 (stereo not shown) [Example 77, N-(5′-cyano-2-methyl-6′-((tetrahydrofuran-3-yl)amino)-[3,3′-bipyridin]-5-yl)-2-(2-cyanopropan-2-yl)isonicotinamide]
b-Raf (V600E)
  IC50: 9.28 nM
C-RAF
  IC50: 2.53 nM

## Cc1ncc(NC(=O)c2ccnc(C(C)(C)C#N)c2)cc1-c1cnc(N2CCOC[C@H]2C)c(C#N)c1 [Example 79, (R)-N-(5′-cyano-2-methyl-6′-(3-methylmorpholino)-[3,3′-bipyridin]-5-yl)-2-(2-cyanopropan-2-yl)isonicotinamide]
b-Raf (V600E)
  IC50: 4.34 nM
C-RAF
  IC50: 1.51 nM

## Cc1ncc(NC(=O)c2ccnc(C(C)(C)C#N)c2)cc1-c1cnc(NC2COC2)c(C#N)c1 [Example 80, N-(5′-cyano-2-methyl-6′-(oxetan-3-ylamino)-[3,3′-bipyridin]-5-yl)-2-(2-cyanopropan-2-yl)isonicotinamide]
b-Raf (V600E)
  IC50: 12.6 nM
C-RAF
  IC50: 1.93 nM

## Cc1ncc(NC(=O)c2ccnc(C(C)(C)C#N)c2)cc1-c1cnc(-n2ccnc2C)c(C#N)c1 [Example 81, N-(5′-cyano-2-methyl-6′-(2-methyl-1H-imidazol-1-yl)-[3,3′-bipyridin]-5-yl)-2-(2-cyanopropan-2-yl)isonicotinamide]
b-Raf (V600E)
  IC50: 90.6 nM
C-RAF
  IC50: 15.1 nM

## Cc1ncc(NC(=O)c2ccnc(C(C)(C)C#N)c2)cc1-c1cnc(NC2CC2)c(C#N)c1 [Example 82, N-(5′-cyano-6′-(cyclopropylamino)-2-methyl-[3,3′-bypyridin]-5-yl)-2-(2-cyanopropan-2-yl)isonicotinamide]
b-Raf (V600E)
  IC50: 10.8 nM
C-RAF
  IC50: 2.04 nM
